Measurements published in US11053204B2, “Pyrimidinyloxy benzene derivatives as herbicides” (FMC Corporation, priority 2015, dated 2021).

What was measured:
Experiment in all cases: Test C preemergence, plant response rating
Type in all cases: in vivo
[1] = test system: johnsongrass (Sorghum halepense)
[2] = test system: galium (catchweed bedstraw, Galium aparine)
[3] = test system: pigweed, palmer (palmer pigweed, Amaranthus palmeri)
kochia (Kochia scoparia) = test system: kochia (Kochia scoparia)
[4] = test system: windgrass (Apera spica-venti)
[5] = test system: barnyardgrass (Echinochloa crus-galli); details: Preemergence

C=C(Br)COC(=O)c1c(Br)cccc1Oc1ncc(Cl)cn1 [Compound 61]
Plant response rating, Johnsongrass ([1]; 16 g ai/ha, scale 0 to 100): 0 | Plant response rating, Johnsongrass ([1]; 31 g ai/ha, scale 0 to 100): 0 | Plant response rating, Johnsongrass ([1]; 62 g ai/ha, scale 0 to 100): 0 | Plant response rating, Johnsongrass ([1]; 125 g ai/ha, scale of 0 to 100): 20 | Plant response rating, Galium ([2]; 16 g ai/ha, scale 0 to 100): 0 | Plant response rating, Galium ([2]; 31 g ai/ha, scale 0 to 100): 0 | Plant response rating, Galium ([2]; 62 g ai/ha, scale of 0 to 100): 10 | Plant response rating, Galium ([2]; 125 g ai/ha, scale of 0 to 100): 15 | Plant response rating, Pigweed, Palmer ([3]; 16 g ai/ha, scale 0 to 100): 40 | Plant response rating, Pigweed, Palmer ([3]; 31 g ai/ha, scale 0 to 100): 50 | Plant response rating, Pigweed, Palmer ([3]; 62 g ai/ha, scale 0 to 100): 70 | Plant response rating, Pigweed, Palmer ([3]; 125 g ai/ha, scale of 0 to 100): 75 | Plant response rating, Kochia (kochia (Kochia scoparia); 16 g ai/ha, scale 0 to 100): 0 | Plant response rating, Kochia (kochia (Kochia scoparia); 31 g ai/ha, scale 0 to 100): 5 | Plant response rating, Kochia (kochia (Kochia scoparia); 62 g ai/ha, scale 0 to 100): 5 | Plant response rating, Kochia (kochia (Kochia scoparia); 125 g ai/ha, scale of 0 to 100): 30 | Plant response rating, Windgrass ([4]; 16 g ai/ha, scale 0 to 100): 0 | Plant response rating, Windgrass ([4]; 31 g ai/ha, scale 0 to 100): 5 | Plant response rating, Windgrass ([4]; 62 g ai/ha, scale 0 to 100): 40 | Plant response rating, Windgrass ([4]; 125 g ai/ha, scale of 0 to 100): 70 | Plant response rating, Barnyardgrass ([5]; 62 g ai/ha, scale of 0 to 100): 50 | Plant response rating, Barnyardgrass ([5]; 125 g ai/ha, scale of 0 to 100): 65 | Plant response rating, Barnyardgrass ([5]; 16 g ai/ha, scale 0 to 100): 0 | Plant response rating, Barnyardgrass ([5]; 31 g ai/ha, scale 0 to 100): 0
